Source: ChEMBL document CHEMBL4038335, “Neuroactive Steroids. 2. 3α-Hydroxy-3β-methyl-21-(4-cyano-1H-pyrazol-1'-yl)-19-nor-5β-pregnan-20-one (SAGE-217): A Clinical Next Generation Neuroactive Steroid Positive Allosteric Modulator of the (γ-Aminobutyric Acid)A Receptor” (J Med Chem, 2017)
Converted amounts (≈) assume the structure as drawn.

Tests used:
[1] = Displacement of [35S]TBPS from GABA-A receptor in Sprague-Dawley rat cerebral cortex cell membranes after 90 mins in presence of GABA by liquid scintillation counting
[2] = biological target: T1, GABA-A receptor; alpha-1/beta-2/gamma-2 (Homo sapiens, UniProt P14867+P18507+P47870); assay: (§1) Positive allosteric modulation of GABAA receptor alpha1beta2gamma2 (unknown origin) expressed in mouse LTK cells assessed as potentiation of GABA-mediated increase in channel current under holding potential at -80 mV preincubated for 30 secs followed by GABA stimulation for 2 secs by automated patch clamp assay; format: cell-based
T1 sequence (P14867 whole entry): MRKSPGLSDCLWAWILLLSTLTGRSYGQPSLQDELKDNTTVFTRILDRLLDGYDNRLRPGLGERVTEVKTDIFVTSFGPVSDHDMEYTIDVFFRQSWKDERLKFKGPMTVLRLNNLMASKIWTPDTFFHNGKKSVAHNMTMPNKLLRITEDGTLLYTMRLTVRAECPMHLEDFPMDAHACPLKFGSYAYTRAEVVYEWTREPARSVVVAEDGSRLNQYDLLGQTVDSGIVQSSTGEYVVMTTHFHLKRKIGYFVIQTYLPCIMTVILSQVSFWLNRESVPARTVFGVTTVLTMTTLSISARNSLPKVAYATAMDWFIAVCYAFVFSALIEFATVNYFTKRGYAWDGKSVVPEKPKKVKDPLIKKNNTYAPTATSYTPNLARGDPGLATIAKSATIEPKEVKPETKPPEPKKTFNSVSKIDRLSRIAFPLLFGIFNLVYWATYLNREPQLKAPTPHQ
T1 sequence (P47870 whole entry): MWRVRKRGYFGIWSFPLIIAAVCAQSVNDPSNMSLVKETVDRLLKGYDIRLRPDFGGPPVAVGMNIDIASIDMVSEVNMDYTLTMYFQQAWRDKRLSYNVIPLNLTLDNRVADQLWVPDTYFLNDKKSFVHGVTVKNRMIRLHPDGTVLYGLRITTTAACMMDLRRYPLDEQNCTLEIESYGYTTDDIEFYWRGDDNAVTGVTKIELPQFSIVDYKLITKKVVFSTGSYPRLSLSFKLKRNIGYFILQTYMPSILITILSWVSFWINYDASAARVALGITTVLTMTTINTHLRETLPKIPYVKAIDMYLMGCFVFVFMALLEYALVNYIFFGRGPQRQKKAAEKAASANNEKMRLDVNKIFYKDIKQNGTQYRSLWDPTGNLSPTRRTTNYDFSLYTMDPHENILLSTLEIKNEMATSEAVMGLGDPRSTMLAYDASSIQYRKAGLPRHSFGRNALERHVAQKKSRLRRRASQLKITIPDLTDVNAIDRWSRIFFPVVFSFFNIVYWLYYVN
T1 sequence (P18507 whole entry): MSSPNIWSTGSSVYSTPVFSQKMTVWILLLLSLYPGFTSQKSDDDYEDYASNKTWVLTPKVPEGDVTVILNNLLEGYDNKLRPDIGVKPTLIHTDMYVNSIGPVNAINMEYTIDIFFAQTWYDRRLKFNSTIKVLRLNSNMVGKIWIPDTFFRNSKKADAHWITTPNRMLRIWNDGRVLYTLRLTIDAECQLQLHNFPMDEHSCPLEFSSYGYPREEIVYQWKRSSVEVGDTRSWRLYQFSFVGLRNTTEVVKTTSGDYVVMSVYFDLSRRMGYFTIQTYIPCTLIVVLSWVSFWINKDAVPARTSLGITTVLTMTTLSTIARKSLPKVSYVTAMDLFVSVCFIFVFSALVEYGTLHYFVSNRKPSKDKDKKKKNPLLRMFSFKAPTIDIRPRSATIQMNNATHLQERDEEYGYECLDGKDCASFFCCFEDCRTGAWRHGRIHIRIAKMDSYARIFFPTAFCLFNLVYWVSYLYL

[3] = biological target: GABA-A receptor; alpha-1/beta-2/gamma-2 (Homo sapiens) (UniProt P14867+P47870+P18507); assay: as §1, with “mV at 0.01 to 10 uM” for “mV”, “assay relative to GABA” for “assay”; format: cell-based
[4] = biological target: Gamma-aminobutyric acid receptor subunit alpha-4/beta3/delta (Homo sapiens, UniProt O14764+P28472+P48169); assay: as §1, with “alpha4beta3delta” for “alpha1beta2gamma2”, “CHO” for “mouse LTK”, “manual” for “automated”; format: cell-based
[5] = biological target: GABA-A receptor alpha-4/beta-3/delta (Homo sapiens, UniProt P28472+P48169+); assay: as §1, with “alpha4beta3delta” for “alpha1beta2gamma2”, “CHO” for “mouse LTK”, “mV at 0.01 to 10 uM” for “mV”, “manual” for “automated”, “assay relative to GABA” for “assay”; format: cell-based; details: 2 s
[6] = Thermodynamic aqueous solubility of compound at 10 uM sonicated for 1 min followed by incubation for 1 hr by HPLC-MS/MS; format: physicochemical; details: buffer; read-out: Therm_solubility
[7] = Clearance in human hepatic microsomes at 10 uM preincubated for 5 mins followed by NADPH addition measured over 60 mins by HPLC-MS/MS analysis; format: ADME, Microsome; details: liver microsomes
[8] = Clearance in rat hepatic microsomes at 10 uM preincubated for 5 mins followed by NADPH addition measured over 60 mins by HPLC-MS/MS analysis; format: ADME, Microsome; details: liver microsomes
[9] = Clearance in mouse hepatic microsomes at 10 uM preincubated for 5 mins followed by NADPH addition measured over 60 mins by HPLC-MS/MS analysis; format: ADME, Microsome; details: liver microsomes
[10] = Clearance in CD1 mouse at 5 mg/kg, iv or 20 mg/kg, po measured up to 8 hrs post dose by LC/MS-MS analysis; format: ADME, organism-based; details: in vivo
[11] = Oral bioavailability in Sprague-Dawley rat at 20 mg/kg measured up to 8 hrs post dose by LC/MS-MS analysis; format: ADME, organism-based; details: in vivo
[12] = Oral bioavailability in CD1 mouse at 20 mg/kg measured up to 8 hrs post dose by LC/MS-MS analysis; format: ADME, organism-based; details: in vivo
[13] = Ratio of drug level in Sprague-Dawley rat brain to plasma at 5 mg/kg, iv measured at 30 mins post dose by LC/MS-MS analysis; format: ADME, organism-based; details: read-out: BPR
[14] = Ratio of drug level in CD1 mouse brain to plasma at 5 mg/kg, iv measured at 30 mins post dose by LC/MS-MS analysis; format: ADME, organism-based; details: read-out: BPR
[15] = Lipophilicity, logD of compound at 20 uM at pH 7.4 by HPLC/MS-MS analysis; format: physicochemical; details: buffer
[16] = Clearance in Sprague-Dawley rat at 5 mg/kg, iv or 20 mg/kg, po measured up to 8 hrs post dose by LC/MS-MS analysis; format: ADME, organism-based; details: in vivo

Gamma-aminobutyric acid receptor subunit alpha-4/beta3/delta, sequence (P28472 whole entry): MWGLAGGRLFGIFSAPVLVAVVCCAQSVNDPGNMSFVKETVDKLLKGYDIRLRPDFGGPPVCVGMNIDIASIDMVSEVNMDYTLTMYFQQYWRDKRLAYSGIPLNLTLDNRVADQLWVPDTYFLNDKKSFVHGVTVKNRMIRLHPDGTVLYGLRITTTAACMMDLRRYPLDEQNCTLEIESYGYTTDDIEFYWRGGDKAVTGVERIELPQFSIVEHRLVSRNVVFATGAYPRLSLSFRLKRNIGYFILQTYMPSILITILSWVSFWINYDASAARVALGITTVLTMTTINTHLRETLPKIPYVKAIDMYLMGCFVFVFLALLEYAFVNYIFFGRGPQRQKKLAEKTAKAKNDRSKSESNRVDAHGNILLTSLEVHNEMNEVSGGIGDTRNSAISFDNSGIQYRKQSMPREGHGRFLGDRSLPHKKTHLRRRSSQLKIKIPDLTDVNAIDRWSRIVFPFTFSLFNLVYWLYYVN
Gamma-aminobutyric acid receptor subunit alpha-4/beta3/delta, sequence (P48169 whole entry): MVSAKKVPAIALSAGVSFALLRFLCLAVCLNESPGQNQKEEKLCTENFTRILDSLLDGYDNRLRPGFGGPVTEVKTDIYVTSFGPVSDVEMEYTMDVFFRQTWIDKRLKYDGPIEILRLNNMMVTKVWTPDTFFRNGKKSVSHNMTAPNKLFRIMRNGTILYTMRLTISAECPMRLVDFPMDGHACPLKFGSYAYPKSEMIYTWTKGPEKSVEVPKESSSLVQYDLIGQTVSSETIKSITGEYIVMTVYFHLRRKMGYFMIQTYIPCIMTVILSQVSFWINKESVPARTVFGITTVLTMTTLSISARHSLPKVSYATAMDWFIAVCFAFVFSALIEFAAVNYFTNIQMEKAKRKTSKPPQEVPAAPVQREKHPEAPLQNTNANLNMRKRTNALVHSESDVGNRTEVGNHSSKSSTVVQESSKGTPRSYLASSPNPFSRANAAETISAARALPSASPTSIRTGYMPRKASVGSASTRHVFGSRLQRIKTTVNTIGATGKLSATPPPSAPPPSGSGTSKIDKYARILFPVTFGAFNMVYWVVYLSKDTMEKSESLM
Gamma-aminobutyric acid receptor subunit alpha-4/beta3/delta, sequence (O14764 whole entry): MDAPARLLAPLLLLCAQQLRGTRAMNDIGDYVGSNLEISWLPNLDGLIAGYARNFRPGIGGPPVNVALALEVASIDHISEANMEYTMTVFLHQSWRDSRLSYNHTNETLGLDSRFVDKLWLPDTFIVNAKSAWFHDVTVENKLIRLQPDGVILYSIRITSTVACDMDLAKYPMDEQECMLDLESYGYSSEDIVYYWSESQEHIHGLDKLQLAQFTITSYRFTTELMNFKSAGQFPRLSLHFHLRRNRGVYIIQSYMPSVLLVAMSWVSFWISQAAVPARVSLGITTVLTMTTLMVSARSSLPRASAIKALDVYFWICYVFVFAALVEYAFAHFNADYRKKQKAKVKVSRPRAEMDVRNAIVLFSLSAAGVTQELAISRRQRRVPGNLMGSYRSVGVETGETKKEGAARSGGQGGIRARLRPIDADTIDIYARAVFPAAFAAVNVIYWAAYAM
GABA-A receptor alpha-4/beta-3/delta, sequence (P28472 whole entry): as the sequence (P28472 whole entry) above
GABA-A receptor alpha-4/beta-3/delta, sequence (P48169 whole entry): as the sequence (P48169 whole entry) above
GABA-A receptor alpha-4/beta-3/delta, sequence (Q06278 whole entry, further chain): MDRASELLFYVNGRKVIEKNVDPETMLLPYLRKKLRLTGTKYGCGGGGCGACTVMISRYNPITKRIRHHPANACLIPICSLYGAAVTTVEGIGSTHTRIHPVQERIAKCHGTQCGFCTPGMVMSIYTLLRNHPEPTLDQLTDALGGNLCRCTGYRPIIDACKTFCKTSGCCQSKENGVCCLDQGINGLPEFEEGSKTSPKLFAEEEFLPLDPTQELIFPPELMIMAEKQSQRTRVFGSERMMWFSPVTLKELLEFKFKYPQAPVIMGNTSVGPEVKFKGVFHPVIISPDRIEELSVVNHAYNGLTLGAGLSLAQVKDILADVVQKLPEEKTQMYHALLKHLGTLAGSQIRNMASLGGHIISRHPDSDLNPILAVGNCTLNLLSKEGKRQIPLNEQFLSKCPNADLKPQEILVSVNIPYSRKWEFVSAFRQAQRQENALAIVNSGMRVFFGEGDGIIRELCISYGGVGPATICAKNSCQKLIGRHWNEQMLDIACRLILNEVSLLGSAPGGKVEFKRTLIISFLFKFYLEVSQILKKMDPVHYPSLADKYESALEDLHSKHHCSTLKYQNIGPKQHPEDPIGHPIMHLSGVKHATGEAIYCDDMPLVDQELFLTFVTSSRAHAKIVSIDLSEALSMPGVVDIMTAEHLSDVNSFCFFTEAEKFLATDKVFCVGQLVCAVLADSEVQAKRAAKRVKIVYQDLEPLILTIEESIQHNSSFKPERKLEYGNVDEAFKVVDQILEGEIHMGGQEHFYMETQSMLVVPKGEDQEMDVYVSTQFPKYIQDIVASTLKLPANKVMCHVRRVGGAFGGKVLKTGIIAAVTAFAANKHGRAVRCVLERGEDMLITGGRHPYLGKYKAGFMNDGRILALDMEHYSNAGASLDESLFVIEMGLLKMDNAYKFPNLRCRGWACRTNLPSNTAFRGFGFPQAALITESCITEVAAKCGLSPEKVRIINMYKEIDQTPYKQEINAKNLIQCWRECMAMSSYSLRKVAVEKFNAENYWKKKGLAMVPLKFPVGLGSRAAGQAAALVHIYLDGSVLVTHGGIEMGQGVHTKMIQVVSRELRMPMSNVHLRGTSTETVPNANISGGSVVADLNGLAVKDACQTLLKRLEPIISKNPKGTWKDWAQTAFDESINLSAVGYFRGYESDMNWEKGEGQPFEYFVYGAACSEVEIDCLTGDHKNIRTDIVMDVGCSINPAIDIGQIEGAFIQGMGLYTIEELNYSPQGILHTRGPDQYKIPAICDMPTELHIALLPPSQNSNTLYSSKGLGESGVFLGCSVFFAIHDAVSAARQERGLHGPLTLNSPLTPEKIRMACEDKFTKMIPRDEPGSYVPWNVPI

SMILES	IC50 [1]	EC50 [2]	Emax [3]	EC50 [4]	Emax [5]	solubility thermodynamic at 1 h, 10 µM [6]	CLhep predicted at 10 µM [7]	CLhep predicted at 10 µM [8]	CLhep predicted at 10 µM [9]	clearance [10]	bioavailability [11]	bioavailability [12]	Kp at 0.5 h [13]	Kp at 0.5 h [14]	logD at 20 µM [15]	clearance [16]
COC[C@@]1(O)CC[C@H]2[C@H](CC[C@@H]3[C@@H]2CC[C@]2(C)[C@@H](C(=O)Cn4cc(C#N)cn4)CC[C@@H]32)C1	16 nM	> 3000 nM	> 1130%	577 nM	610%											
C[C@@]1(O)CC[C@H]2[C@H](CC[C@@H]3[C@@H]2CC[C@]2(C)[C@@H](C(=O)Cn4cc(C(=O)O)cn4)CC[C@@H]32)C1	> 3000 nM															
C[C@@]1(O)CC[C@H]2[C@H](CC[C@@H]3[C@@H]2CC[C@]2(C)[C@@H](C(=O)Cn4cc(Cl)cn4)CC[C@@H]32)C1	13 nM	1500 nM	642%	744 nM												
Cc1ccn(CC(=O)[C@H]2CC[C@H]3[C@@H]4CC[C@@H]5C[C@](C)(O)CC[C@@H]5[C@H]4CC[C@]23C)n1	45 nM	> 3650 nM	> 695%													
Cc1cnnn1CC(=O)[C@H]1CC[C@H]2[C@@H]3CC[C@@H]4C[C@](C)(O)CC[C@@H]4[C@H]3CC[C@]12C	> 3000 nM	1600 nM	1120%	2010 nM												
Cc1ccnn1CC(=O)[C@H]1CC[C@H]2[C@@H]3CC[C@@H]4C[C@](C)(O)CC[C@@H]4[C@H]3CC[C@]12C	80 nM	> 10000 nM	> 469%													
Cc1cn(CC(=O)[C@H]2CC[C@H]3[C@@H]4CC[C@@H]5C[C@](C)(O)CC[C@@H]5[C@H]4CC[C@]23C)nn1	17 nM	> 3000 nM	> 530%													
C[C@@]1(O)CC[C@H]2[C@H](CC[C@@H]3[C@@H]2CC[C@]2(C)[C@@H](C(=O)Cn4cc(C#N)nn4)CC[C@@H]32)C1	251 nM															
C[C@@]1(O)CC[C@H]2[C@H](CC[C@@H]3[C@@H]2CC[C@]2(C)[C@@H](C(=O)Cn4nccn4)CC[C@@H]32)C1	11 nM	125 nM	663%	240 nM	579%	7.3 µM (≈ 2.81 µg/mL)	3.33 mL/min/kg	45 mL/min/kg	66.7 mL/min/kg	43.3 mL/min/kg	25%	17%	1.8	1		
C[C@@]1(O)CC[C@H]2[C@H](CC[C@@H]3[C@@H]2CC[C@]2(C)[C@@H](C(=O)Cn4cccn4)CC[C@@H]32)C1	30 nM	979 nM	474%	1240 nM	583%	8 µM (≈ 3.08 µg/mL)	5 mL/min/kg	41.7 mL/min/kg	81.7 mL/min/kg	75 mL/min/kg	19%	5%	1.1		4.6	28.3 mL/min/kg
C[C@@]1(O)CC[C@H]2[C@H](CC[C@@H]3[C@@H]2CC[C@]2(C)[C@@H](C(=O)Cn4cc(C(F)(F)F)cn4)CC[C@@H]32)C1	8 nM	1050 nM	339%	1600 nM												
Cc1cnn(CC(=O)[C@H]2CC[C@H]3[C@@H]4CC[C@@H]5C[C@](C)(O)CC[C@@H]5[C@H]4CC[C@]23C)n1	21 nM	1640 nM	532%	192 nM	614%	7 µM (≈ 2.8 µg/mL)	5 mL/min/kg	53.3 mL/min/kg	81.7 mL/min/kg	61.7 mL/min/kg	6%	39%		1		50 mL/min/kg
CC[C@@]1(O)CC[C@H]2[C@H](CC[C@@H]3[C@@H]2CC[C@]2(C)[C@@H](C(=O)Cn4cc(C#N)cn4)CC[C@@H]32)C1	36 nM	> 3000 nM	> 297%													
C[C@@]1(O)CC[C@H]2[C@H](CC[C@@H]3[C@@H]2CC[C@]2(C)[C@@H](C(=O)Cn4cc(C(N)=O)cn4)CC[C@@H]32)C1	64 nM	> 3000 nM	> 357%													
C[C@@]1(O)CC[C@H]2[C@H](CC[C@@H]3[C@@H]2CC[C@]2(C)[C@@H](C(=O)Cn4ncc(C#N)n4)CC[C@@H]32)C1	78 nM	> 3000 nM	> 154%													
COc1cnn(CC(=O)[C@H]2CC[C@H]3[C@@H]4CC[C@@H]5C[C@](C)(O)CC[C@@H]5[C@H]4CC[C@]23C)c1	28 nM	1760 nM	434%	2050 nM	750%											
C[C@@]1(O)CC[C@H]2[C@H](CC[C@@H]3[C@@H]2CC[C@]2(C)[C@@H](C(=O)Cn4cc([N+](=O)[O-])cn4)CC[C@@H]32)C1	18 nM	1160 nM	440%													
CC(=O)[C@H]1CC[C@H]2[C@@H]3CC[C@H]4C[C@H](O)CC[C@]4(C)[C@H]3CC[C@]12C [BREXANOLONE]	22 nM	237 nM	510%	75.5 nM	430%	3.3 µM (≈ 1.05 µg/mL)		55 mL/min/kg	66.7 mL/min/kg	200 mL/min/kg	2%		1.8	1.9		
Cc1cnn(CC(=O)[C@H]2CC[C@H]3[C@@H]4CC[C@@H]5C[C@](C)(O)CC[C@@H]5[C@H]4CC[C@]23C)c1	49 nM	291 nM	427%	1360 nM	841%	7 µM (≈ 2.79 µg/mL)	8.33 mL/min/kg	50 mL/min/kg	85 mL/min/kg	60 mL/min/kg	9.5%	6%	2		5	63.3 mL/min/kg
